Measurements reported in US7402548B2, “Benzoxazole compounds, process for producing the same and herbicides” (Kyoyu Agri Co., Ltd., priority 2000, dated 2008).

How the values were obtained:
livid amaranth = experiment: Soil treatment test for upland field; type: in vivo, Amaranthus lividus; set-up: key: 0 = normal development, 5 = all killed; details: 500 g/ha, 3 weeks, glass house 25° C.
How it was run: (§1)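 Pre-emergence: seeds sown in alluvial Ube soil, wettable powder diluted in water with 0.05% surfactant sprayed on soil surface at 500 g/ha. Plants held in glasshouse at 25° C average for 3 weeks. Damage scored 0 (normal) to 5 (all killed) versus untreated.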

velvetleaf = experiment: Soil treatment test for upland field; type: in vivo, Abutilon theophrasti; set-up: key: 0 = normal development, 5 = all killed; details: 500 g/ha, 3 weeks, glass house 25° C.
How it was run: as §1

morning glory [1] = experiment: Foliar spread test for upland field; type: in vivo, Ipomoea spps.; set-up: key: 0 = normal development, 5 = all killed (6 ranks vs. untreated); details: foliar spray, 500 ppm, 3 weeks, glass house 25° C.
How it was run: (§2)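 Scores on a 0–5 scale (0 normal development, 5 all killed), relative to untreated controls, were taken 3 weeks post-treatment in a 25 °C glass house. Treatment was a uniform foliar spray at 500 ppm (0.5% surfactant) onto roughly 2-week-old soil-grown plants.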

blackgrass = experiment: Soil treatment test for upland field; type: in vivo, Alopecurus aegualis; set-up: key: 0 = normal development, 5 = all killed; details: 500 g/ha, 3 weeks, glass house 25° C.
How it was run: as §1

Large crabgrass [2] = experiment: Soil treatment test for upland field; type: in vivo, Digitaria adscendens; set-up: key: 0 = normal development, 5 = all killed; details: 500 g/ha, 3 weeks, glass house 25° C.
How it was run: as §1

common lambsquarters [3] = experiment: Soil treatment test for upland field; type: in vivo, Chenopodium album; set-up: key: 0 = normal development, 5 = all killed; details: 500 g/ha, 3 weeks, glass house 25° C.
How it was run: as §1

barnyard grass [4] = experiment: Soil treatment test for upland field; type: in vivo, Eschinochloa crusgalli; set-up: key: 0 = normal development, 5 = all killed; details: 500 g/ha, 3 weeks, glass house 25° C.
How it was run: as §1

Large crabgrass [5] = experiment: Foliar spread test for upland field; type: in vivo, Digitaria adscendens; set-up: key: 0 = normal development, 5 = all killed (6 ranks vs. untreated); details: foliar spray, 500 ppm, 3 weeks, glass house 25° C.
How it was run: as §2

common lambsquarters [6] = experiment: Foliar spread test for upland field; type: in vivo, Chenopodium album; set-up: key: 0 = normal development, 5 = all killed (6 ranks vs. untreated); details: foliar spray, 500 ppm, 3 weeks, glass house 25° C.
How it was run: as §2

wheat [7] = experiment: Soil treatment test for upland field; type: in vivo; set-up: key: 0 = normal development, 5 = all killed; details: 500 g/ha, 3 weeks, glass house 25° C.
How it was run: as §1

sugar beat [8] = experiment: Soil treatment test for upland field; type: in vivo; set-up: key: 0 = normal development, 5 = all killed; details: 500 g/ha, 3 weeks, glass house 25° C.
How it was run: as §1

corn [9] = experiment: Soil treatment test for upland field; type: in vivo; set-up: key: 0 = normal development, 5 = all killed; details: 500 g/ha, 3 weeks, glass house 25° C.
How it was run: as §1

solgum [10] = experiment: Soil treatment test for upland field; type: in vivo; set-up: key: 0 = normal development, 5 = all killed; details: 500 g/ha, 3 weeks, glass house 25° C.
How it was run: as §1

morning glory [11] = experiment: Soil treatment test for upland field; type: in vivo, Ipomoea spps.; set-up: key: 0 = normal development, 5 = all killed; details: 500 g/ha, 3 weeks, glass house 25° C.
How it was run: as §1

green foxtail = experiment: Soil treatment test for upland field; type: in vivo, Setaria viridis; set-up: key: 0 = normal development, 5 = all killed; details: 500 g/ha, 3 weeks, glass house 25° C.
How it was run: as §1

barnyard grass [12] = experiment: Herbicidal test for paddy field; type: in vivo, Eschinochloa crusgalli; details: 500 g/ha, dropwise addition to paddy water at 1.5 leaf stage of barnyard grass; glass house 25° C., 3 weeks; rank 0-5 vs non-treated district; also: key: 0: normal development; 1: Less damaged; 2: Slightly damaged; 3: Moderately damaged; 4: Severely damaged; 5: All killed
How it was run: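 Wettable-powder formulations in water with 0.05% surfactant were dripped onto flooded (3 cm) Ube alluvial-soil pots at 500 g/ha, applied at barnyard grass 1.5-leaf stage. Plants were kept in a glasshouse at 25° C. for 3 weeks. Damage was scored 0 (normal) to 5 (all killed) versus untreated plants.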

wheat [13] = experiment: Foliar spread test for upland field; type: in vivo; set-up: key: 0 = normal development, 5 = all killed (6 ranks vs. untreated); details: foliar spray, 500 ppm, 3 weeks, glass house 25° C.
How it was run: as §2

sugar beat [14] = experiment: Foliar spread test for upland field; type: in vivo; set-up: key: 0 = normal development, 5 = all killed (6 ranks vs. untreated); details: foliar spray, 500 ppm, 3 weeks, glass house 25° C.
How it was run: as §2

corn [15] = experiment: Foliar spread test for upland field; type: in vivo; set-up: key: 0 = normal development, 5 = all killed (6 ranks vs. untreated); details: foliar spray, 500 ppm, 3 weeks, glass house 25° C.
How it was run: as §2

solgum [16] = experiment: Foliar spread test for upland field; type: in vivo; set-up: key: 0 = normal development, 5 = all killed (6 ranks vs. untreated); details: foliar spray, 500 ppm, 3 weeks, glass house 25° C.
How it was run: as §2

cotton = experiment: Foliar spread test for upland field; type: in vivo; set-up: key: 0 = normal development, 5 = all killed (6 ranks vs. untreated); details: foliar spray, 500 ppm, 3 weeks, glass house 25° C.
How it was run: as §2

soybean = experiment: Foliar spread test for upland field; type: in vivo; set-up: key: 0 = normal development, 5 = all killed (6 ranks vs. untreated); details: foliar spray, 500 ppm, 3 weeks, glass house 25° C.
How it was run: as §2

[17] = tested on: sicklepod (Cassia obtusifolia); experiment: Soil treatment test for upland field; type: in vivo; details: 500 g/ha, 3 weeks, glass house 25° C. Also: key: 0: normal development; 1: Less damaged; 2: Slightly damaged; 3: Moderately damaged; 4: Severely damaged; 5: All killed.
How it was run: as §1

[18] = tested on: common Cocklebur (Xanthium strumarium); experiment: Soil treatment test for upland field; type: in vivo; details: 500 g/ha, 3 weeks, glass house 25° C. Also: key: 0: normal development; 1: Less damaged; 2: Slightly damaged; 3: Moderately damaged; 4: Severely damaged; 5: All killed.
How it was run: as §1

Cassia obtusifolia = experiment: Foliar spread test for upland field; type: in vivo; set-up: key: 0 = normal development, 5 = all killed; details: foliar spray, 500 ppm, 3 weeks, glass house 25° C.
How it was run: as §2

Xanthium pensylvanicum = experiment: Foliar spread test for upland field; type: in vivo; set-up: key: 0 = normal development, 5 = all killed; details: foliar spray, 500 ppm, 3 weeks, glass house 25° C.
How it was run: as §2

Row | SMILES | Effects Livid amaranth (livid amaranth) | Effects Velvetleaf (velvetleaf) | Effects Morning glory (morning glory [1]) | Effects Blackgrass (blackgrass) | Effects Large crabgrass (Large crabgrass [2]) | Effects Common lambsquarters (common lambsquarters [3]) | Effects Barnyardgrass (barnyard grass [4]) | Effects Large crabgrass (Large crabgrass [5]) | Effects Common lambsquarters (common lambsquarters [6]) | Effects Wheat (wheat [7]) | Effects Sugar beat (sugar beat [8]) | Effects Corn (corn [9]) | Effects Solgum (solgum [10]) | Effects Morning glory (morning glory [11]) | Effects Green foxtail (green foxtail) | Effects Barnyardgrass (barnyard grass [12]) | Effects Wheat (wheat [13]) | Effects Sugar beat (sugar beat [14]) | Effects Corn (corn [15]) | Effects Solgum (solgum [16]) | further results
1 | FC(F)(F)c1cccc(Oc2cccc(-c3nc4cc(Cl)ccc4o3)n2)c1 [I-a-3, 6-(5-chlorobenzoxazol-2-yl)-2-(3-trifluoromethylphenoxy)pyridine] | 5 | 3 | 5 | 4 | 5 | 5 | 4 | 2 | 5 | 1 | 5 | 1 | 1 | 3 | 5 | 3 | 1 | 4 | 1 | 1 | Effects Sotton (cotton): 4; Effects Soybean (soybean): 3; Effects Sicklepod [17]: 5; Effects Common Cocklebur [18]: 2; Effects Sicklepod (Cassia obtusifolia): 4; Effects Common Cocklebur (Xanthium pensylvanicum): 4
2 | Fc1ccc2nc(-c3cccc(Oc4cccc(C(F)(F)F)c4)n3)oc2c1 [I-a-6, 6-(6-fluorobenzoxazol-2-yl)-2-(3-trifluoromethylphenoxy)pyridine] | 5 | 2 | 5 | 5 | 5 | 5 | 5 | 5 | 5 | 1 | 5 | 0 | 0 | 5 | 5 | 4 | 3 | 5 | 3 | 3 | Effects Sotton (cotton): 3; Effects Soybean (soybean): 5; Effects Sicklepod [17]: 1; Effects Common Cocklebur [18]: 0; Effects Sicklepod (Cassia obtusifolia): 5; Effects Common Cocklebur (Xanthium pensylvanicum): 5
3 | Fc1ccc2nc(-c3cccc(Oc4ccc(F)c(C(F)(F)F)c4)n3)oc2c1 [I-a-7] | 5 | 0 | 3 | 4 | 5 | 5 | 4 | 3 | 4 | 0 | 5 | 0 | 0 | 1 | 5 | 1 | 2 | 5 | 1 | 2 | Effects Sotton (cotton): 3; Effects Soybean (soybean): 3; Effects Sicklepod [17]: 3; Effects Common Cocklebur [18]: 0; Effects Sicklepod (Cassia obtusifolia): 3; Effects Common Cocklebur (Xanthium pensylvanicum): 4
